The values below come from patent US20140336248A1, “THERAPEUTIC COMPOSITIONS AND RELATED METHODS OF USE” (priority 2011, published 2014).

Series [1] relates to ICR mice. In words: Tolerability 0.3, 0.6, 1.0 mg/kg IV in 1% ethanol/4% propylene glycol/5% Solutol HS 15 (Example H). The class given is in vivo, mouse. The note with it: male ICR mice. As for the experimental part: Injectable salinomycin compositions were prepared as follows: A) 0.2 mg/mL composition: 1.01 mg of salinomycin sodium was added to 50 μL ethanol and vortexed for 1 minute to yield a clear solution. 200 μL of propylene glycol was then added and vortexed for 1 minute, yielding a clear solution. To this solution was next added 250 μL Solutol® HS 15, with vortexing for 1 minute and sonicating for 1 minute, to yield a clear solution.
(§1) Eight male ICR mice (Sino-British SIPPR/BK Lab Animal Ltd, Shanghai, China) were assigned to control and treatment groups. […] The individual animal number marked on the tail, and study number comprised a unique identification for each animal. Animal identification was verified during the course of the study. The animals were housed two per cage in stainless steel suspended cage in an environmentally controlled room. SLACOM (Rodent Diet #20110615029, Shanghai SLAC Laboratory Animal Co. Ltd.) was available ad libitum. Temperature and humidity were monitored and recorded twice daily.
Each composition and the vehicle (control) were administered once daily to each of two mice via intravenous bolus injection for 5 consecutive days. The dose levels for the treated groups and the control group are in the below table. Individual doses were based on the most recent body weight.
(§2) Body weights for all animals were measured and recorded at receipt, prior to randomization, and once daily during the study. Body weight change was calculated for mean value of animals relative to Day 1 mean body weight value.

The subject of series [2] is ICR mice. In words: Tolerability 0.1, 0.3, 1.0, 3.0 mg/kg IV in 10% ethanol/10% Solutol HS 15, 4 days (Example M). The class given is in vivo, mouse. How it is done: as §1, with “Using the techniques described above in Example B, an aqueous vehicle comprising 10% ethanol (v/v) and 10% Solutol® HS 15 (v/v) was prepared. An appropriate amount of salinomycin sodium was dissolved into the vehicle to make solutions having concentrations of 0.02, 0.06, 0.2, and 0.3 mg/mL. Ten male ICR” for “Eight male ICR”, “animal number was marked on” for “animal number marked on”
(§3) Each composition and the vehicle (control) were administered once daily to each of two mice via intravenous bolus injection for 4 consecutive days. The dose levels for the treated groups and the control group are in the below table. Individual doses were based on the most recent body weight.
as §2

Series [3] deals with ICR mice. Nature of the series: Tolerability 0.1, 0.3, 1.0, 3.0 mg/kg IV in 5% ethanol/15% Solutol HS 15, 4 days (Example N). The class given is in vivo, mouse. How it is done:
as §1, with “Using the techniques described above in Example A, an aqueous vehicle comprising 5% ethanol (v/v) and 15% Solutol® HS 15 (v/v) was prepared. An appropriate amount of salinomycin sodium was dissolved into the vehicle to make solutions having concentrations of 0.02, 0.06, 0.2, and 0.3 mg/mL. Ten male ICR” for “Eight male ICR”, “animal number was marked on” for “animal number marked on”
as §3, §2

Series [4] relates to ICR mice. In words: Tolerability 0.1, 0.3, 1.0 mg/kg IV in 1% ethanol/4% propylene glycol/5% Solutol HS 15, 4 days (Example P). The class given is in vivo, mouse. As for the experimental part: as §1, with “Using the techniques described above in Example A, an aqueous vehicle comprising 1% ethanol (v/v), 4% propylene glycol (v/v) and 5% Solutol® HS 15 (v/v) was prepared. An appropriate amount of salinomycin sodium was dissolved into the vehicle to make solutions having concentrations of 0.02, 0.06, and 0.2 mg/mL. Eight male” for “Eight male”, “animal number was marked on” for “animal number marked on”
as §3, §2

The format of series [5] is physicochemical. From the text: The precipitate observed in Batch A in Example S was isolated and subjected to XRPD analysis. Comparative evaluation was done as shown in FIG. 11 using (1) API used in the formulation (Batch C, manufactured by Neuland Laboratories Ltd., India) and (2) API from a different lot (Batch D).
[6] abbreviates: 1.0 mg/kg IV once daily 4 days, after the first administration, no abnormalities on days 2, 3, 4.

With `CC[C@@H](C(=O)[C@@H](C)[C@@H](O)[C@H](C)[C@@H]1O[C@@H]([C@@H](CC)C(=O)O)CC[C@@H]1C)[C@H]1O[C@]2(C=C[C@@H](O)[C@]3(CC[C@@](C)([C@H]4CC[C@](O)(CC)[C@H](C)O4)O3)O2)[C@H](C)C[C@@H]1C` [salinomycin sodium], the Abnormalities detected entry with ICR mice [1] (0.3, 0.6, 1.0 mg/kg IV bolus once daily 5 days) was “no abnormalities”. Moreover, the “Body weight change relative to Day 1” value in the series on ICR mice [1] (0.3, 0.6, 1.0 mg/kg IV bolus once daily 5 days, FIG. 1) is recorded as “all groups added weight”. In addition, the “Dose that can be safely dosed” value in the series with ICR mice [1] (IV once daily 5 days) is listed as 1 mg/kg. The Clinical observations result with ICR mice [2] (0.1 mg/kg IV once daily 4 days) is “no abnormalities”; with ICR mice [2] (0.3 mg/kg IV once daily 4 days, dissipated after 3 hours, no abnormalities on days 2, 3, 4) it was “skin cold to the touch after the first administration”; with ICR mice [2] (setting [6]), “decreased activity, decreased grasping, and skin cold to the touch”; in the series on ICR mice [3] (0.1 mg/kg IV once daily 4 days), “no abnormalities”; with ICR mice [3] (0.3 mg/kg IV once daily 4 days), “no abnormalities”; with ICR mice [3] (setting [6]), “decreased activity, decreased grasping, and laying prostrate”. Further, the Clinical observations entry is listed as “no abnormalities” in the series on ICR mice [4] (0.1 mg/kg IV once daily 4 days); “no abnormalities” in the series on ICR mice [4] (0.3 mg/kg IV once daily 4 days); “decrease in activity after initial administration” in the series on ICR mice [4] (1 mg/kg IV once daily 4 days, no abnormalities on days 2, 3, 4). The Mortality result in the series on ICR mice [2] (3.0 mg/kg IV) and in the series on ICR mice [3] (3.0 mg/kg IV) was “died shortly after administration” throughout. Also, the Body weight result in the series with ICR mice [2] (each group surviving administration, IV once daily 4 days, FIG. 6) is listed as “relatively stable”; in the series with ICR mice [3] (each group surviving administration, IV once daily 4 days, FIG. 7), “relatively stable”; in the series on ICR mice [4] (0.1, 0.3, 1 mg/kg IV once daily 4 days, FIG. 9), “increased”. Also, the “Solubility (conclusion)” value in series [5] is on record as “inadequate solubility”. The “Solid form by XRPD” value in series [5] (API used in the formulation along with API of a different lot) was “amorphous nature”.
